Reference: US11046672B2, “Indolinones compounds and their use in the treatment of fibrotic diseases” (RESPIVERT LIMITED, priority 2015, dated 2021)
Where two headings read alike, the source gives them in different places.

What was measured:
PDGFRβ [1] = biological target: T1, PDGFRβ (Homo sapiens (Human), UniProt P09619); experiment: Duration of action (washout) against PDGF-BB induced phosphorylation of PDGFRβ in human fetal lung fibroblast cells; format: cell-based; conditions: MRC-5 cells, after wash-out, rhuPDGF-BB; experiments in Groups 1-4
PAMPA permeability assay = format: in vitro ADME; conditions: PAMPA, donor and acceptor compartments
PDGFRβ [2] = biological target: T1, PDGFRβ; conditions: read-out: Ki PDGFRβ; mean, n = 2 unless otherwise indicated
MRC5 cells = experiment: Cell viability assay in MRC5 cells (MTT)
PDGFRβ [3] = biological target: T1, PDGFRβ; experiment: PDGF-BB induced phosphorylation of PDGFRβ in fibroblasts (MRC5 cells, HTRF); format: cell-based; conditions: MRC5 cells; n = 1 unless otherwise indicated; read-out: PDGFBB-induced PDGFRβ phosphorylation in MRC5 cells (IC50)
[4] = Pharmacokinetic measurements in rats (intravenous and intra-tracheal dosing); format: in vivo; conditions: rat; for concentration at 6 h / concentration at 0.1 h / concentration at 1.5 h / concentration at 24 h: lung, read-out: lung concentration (nM) at time (h); for Kp at 6 h / Kp at 0.1 h / Kp at 1.5 h / Kp at 24 h: lung/plasma
[5] = Pharmacokinetic measurements in mice (intravenous and intra-nasal dosing); format: in vivo; conditions: mouse; for concentration at 6 h / concentration at 0.1 h / concentration at 1.5 h / concentration at 24 h: lung, read-out: lung concentration (nM) at time (h); for Kp at 6 h / Kp at 0.1 h / Kp at 1.5 h: lung/plasma

T1 sequence (P09619 33-1106): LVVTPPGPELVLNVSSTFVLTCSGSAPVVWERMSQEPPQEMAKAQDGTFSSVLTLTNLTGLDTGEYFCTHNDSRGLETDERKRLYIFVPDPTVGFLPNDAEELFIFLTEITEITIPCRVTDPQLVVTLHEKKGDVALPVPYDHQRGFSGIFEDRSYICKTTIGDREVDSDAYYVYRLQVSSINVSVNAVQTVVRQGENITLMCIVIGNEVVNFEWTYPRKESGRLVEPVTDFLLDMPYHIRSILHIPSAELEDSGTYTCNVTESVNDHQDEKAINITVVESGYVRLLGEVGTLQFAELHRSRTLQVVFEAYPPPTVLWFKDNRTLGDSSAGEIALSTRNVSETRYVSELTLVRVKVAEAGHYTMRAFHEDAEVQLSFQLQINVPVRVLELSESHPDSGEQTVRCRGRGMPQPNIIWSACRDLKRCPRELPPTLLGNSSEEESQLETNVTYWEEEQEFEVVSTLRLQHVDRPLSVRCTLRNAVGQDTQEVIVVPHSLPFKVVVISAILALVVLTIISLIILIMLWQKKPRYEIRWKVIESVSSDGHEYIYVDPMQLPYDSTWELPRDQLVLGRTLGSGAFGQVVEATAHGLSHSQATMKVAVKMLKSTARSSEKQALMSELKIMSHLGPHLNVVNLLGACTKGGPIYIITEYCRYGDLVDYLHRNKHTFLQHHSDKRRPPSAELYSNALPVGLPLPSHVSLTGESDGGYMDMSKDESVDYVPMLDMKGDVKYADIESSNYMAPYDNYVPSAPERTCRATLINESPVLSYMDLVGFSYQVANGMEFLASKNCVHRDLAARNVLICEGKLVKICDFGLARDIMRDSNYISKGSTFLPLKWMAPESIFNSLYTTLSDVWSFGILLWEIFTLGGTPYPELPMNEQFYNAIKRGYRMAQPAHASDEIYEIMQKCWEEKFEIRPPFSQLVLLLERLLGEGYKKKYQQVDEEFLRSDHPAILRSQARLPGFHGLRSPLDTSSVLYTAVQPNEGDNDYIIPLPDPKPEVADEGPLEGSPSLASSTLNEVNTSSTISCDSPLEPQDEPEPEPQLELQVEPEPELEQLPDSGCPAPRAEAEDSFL

% phos: percentage phosphorylation after wash-out relative to maximal phosphorylation (100%) (PDGFRβ [1]): 37.3% | % Recovery (PAMPA permeability assay): 60.9% | recovery at 5 hr, 10 μM (PAMPA permeability assay; pH 7, PAMPA): 50.4% | Ki (PDGFRβ [2]): 7.13 nM | IC50 (PDGFRβ [3]): 7.74 nM | concentration at 6 h ([4]; male, CD, iv, 0.1 mg/kg, i.v. dosing, 6 h): 92 nM | concentration at 0.1 h ([4]; male, CD, iv, i.v. dosing, 0.1 h): 475 nM | concentration at 1.5 h ([4]; male, CD, iv, i.v. dosing, 1.5 h): 251 nM | concentration at 24 h ([4]; male, CD, iv, i.v. dosing, 24 h): 52 nM | concentration at 0.1 h ([4]; male, CD, other: intra-tracheal, i.t. dosing, 0.1 h): 3590 nM | concentration at 1.5 h ([4]; male, CD, other: intra-tracheal, i.t. dosing, 1.5 h): 1710 nM | concentration at 6 h ([4]; male, CD, other: intra-tracheal, i.t. dosing, 6 h): 629 nM | concentration at 24 h ([4]; male, CD, other: intra-tracheal, i.t. dosing, 24 h): 747 nM | Kp at 6 h ([4]; male, CD, iv, 0.1 mg/kg, i.v. dosing, 6 h, read-out: lung/plasma ratio at time(h)): 26 | Kp at 0.1 h ([4]; male, CD, iv, i.v. dosing, 0.1 h, read-out: lung/plasma ratio at time(h)): 24 | Kp at 1.5 h ([4]; male, CD, iv, i.v. dosing, 1.5 h, read-out: lung/plasma ratio at time(h)): 36 | Kp at 24 h ([4]; male, CD, iv, i.v. dosing, 24 h, read-out: lung/plasma ratio at time(h)): 98 | Kp at 0.1 h ([4]; male, CD, other: intra-tracheal, i.t. dosing, 0.1 h, read-out: lung/plasma conc ratio at time(h)): 74 | Kp at 1.5 h ([4]; male, CD, other: intra-tracheal, i.t. dosing, 1.5 h, read-out: lung/plasma conc ratio at time(h)): 362 | Kp at 6 h ([4]; male, CD, other: intra-tracheal, i.t. dosing, 6 h, read-out: lung/plasma conc ratio at time(h)): 461 | Kp at 24 h ([4]; male, CD, other: intra-tracheal, i.t. dosing, 24 h, read-out: lung/plasma conc ratio at time(h)): 1520 | MRT ([4]; male, CD, plasma, iv, i.v. dosing): 8 h | clearance ([4]; male, CD, plasma, iv, i.v. dosing (i.v. dose 0.1-0.5 per compound)): 48 mL/min/kg | Vd ([4]; male, CD, plasma, iv, i.v. dosing, read-out: Vss): 23 L/kg | half-life ([4]; male, CD, plasma, iv, i.v. dosing, read-out: t½ (converted)): 7.6 h | Lung conc i.t./i.v. Ratio at time (h) ([4]; 0.1 h): 7.6 | Lung conc i.t./i.v. Ratio at time (h) ([4]; 1.5 h): 6.8 | Lung conc i.t./i.v. Ratio at time (h) ([4]; 6 h): 6.8 | Lung conc i.t./i.v. Ratio at time (h) ([4]; 24 h): 14.4 | i.t. BAV (%) ([4]; i.t. dosing (i.t. dose 0.1-0.5 per compound)): 70% | BAL % administered dose at time (h) ([4]; i.t. dosing, 0.1 h): 3.1% | BAL % administered dose at time (h) ([4]; i.t. dosing, 1.5 h): 0.6% | BAL % administered dose at time (h) ([4]; i.t. dosing, 6 h): 0.3% | BAL % administered dose at time (h) ([4]; i.t. dosing, 24 h): 0.2% | BAL % administered dose at time (h) ([4]; i.v. dosing, 0.1 h): 0.04% | BAL % administered dose at time (h) ([4]; i.v. dosing, 1.5 h): 0.01% | BAL % administered dose at time (h) ([4]; i.v. dosing, 6 h): 0.01% | BAL % administered dose at time (h) ([4]; i.v. dosing, 24 h): 0.01% | Oral BAV (%) ([4]; oral dose 3 mg/kg): 4% | concentration at 6 h ([5]; male, C57BL/6J, iv, 0.2 mg/kg, i.v. dosing, 6 h, mean): 306 nM | concentration at 0.1 h ([5]; male, C57BL/6J, iv, i.v. dosing, 0.1 h, mean): 868 nM | concentration at 1.5 h ([5]; male, C57BL/6J, iv, i.v. dosing, 1.5 h, mean): 416 nM | concentration at 24 h ([5]; male, C57BL/6J, iv, i.v. dosing, 24 h, mean): 20 nM | concentration at 0.1 h ([5]; male, C57BL/6J, other: intra-nasal, i.n. dosing, 0.1 h, mean): 3510 nM | concentration at 1.5 h ([5]; male, C57BL/6J, other: intra-nasal, i.n. dosing, 1.5 h, mean): 1730 nM | concentration at 6 h ([5]; male, C57BL/6J, other: intra-nasal, i.n. dosing, 6 h, mean): 1320 nM | concentration at 24 h ([5]; male, C57BL/6J, other: intra-nasal, i.n. dosing, 24 h, mean): 363 nM | Kp at 6 h ([5]; male, C57BL/6J, iv, 0.2 mg/kg, i.v. dosing, 6 h, read-out: lung/plasma ratio at time(h)): 152 | Kp at 0.1 h ([5]; male, C57BL/6J, iv, i.v. dosing, 0.1 h, read-out: lung/plasma ratio at time(h)): 13 | Kp at 1.5 h ([5]; male, C57BL/6J, iv, i.v. dosing, 1.5 h, read-out: lung/plasma ratio at time(h)): 39 | Kp at 0.1 h ([5]; male, C57BL/6J, other: intra-nasal, i.n. dosing, 0.1 h, read-out: lung/plasma conc ratio at time(h)): 209 | Kp at 1.5 h ([5]; male, C57BL/6J, other: intra-nasal, i.n. dosing, 1.5 h, read-out: lung/plasma conc ratio at time(h)): 688 | Kp at 6 h ([5]; male, C57BL/6J, other: intra-nasal, i.n. dosing, 6 h, read-out: lung/plasma conc ratio at time(h)): 1130 | clearance ([5]; male, C57BL/6J, whole blood, iv): 111 mL/min/kg | MRT ([5]; male, C57BL/6J, whole blood, iv, i.v. dosing, mean): 3.2 h | Vd ([5]; male, C57BL/6J, whole blood, iv, i.v. dosing, mean, read-out: Vss): 21 L/kg | half-life ([5]; male, C57BL/6J, whole blood, iv, i.v. dosing, mean, read-out: t½ (converted)): 2.6 h | Lung conc i.n./i.v. Ratio at time (h) ([5]; 0.1 h): 4.0 | Lung conc i.n./i.v. Ratio at time (h) ([5]; 1.5 h): 4.2 | Lung conc i.n./i.v. Ratio at time (h) ([5]; 6 h): 4.3 | Lung conc i.n./i.v. Ratio at time (h) ([5]; 24 h): 18.2 | BAV (%) ([5]; i.n. dosing (i.n. dose 1 nintedanib, 0.2 examples), mean): 14% | BAL % administered dose at time (h) ([5]; i.n. dosing, 0.1 h): 1% | BAL % administered dose at time (h) ([5]; i.n. dosing, 1.5 h): 0.1% | BAL % administered dose at time (h) ([5]; i.n. dosing, 6 h): 0.3% | BAL % administered dose at time (h) ([5]; i.n. dosing, 24 h): 0.1% | BAL % administered dose at time (h) ([5]; i.v. dosing, 0.1 h): 0.07% | BAL % administered dose at time (h) ([5]; i.v. dosing, 1.5 h): 0.02% | BAL % administered dose at time (h) ([5]; i.v. dosing, 6 h): 0.01% | BAL % administered dose at time (h) ([5]; i.v. dosing, 24 h): 0.02% | BAV (%) ([5]; oral dosing (oral dose 60 mg/kg nintedanib, 10 mg/kg examples), mean): 13%
Structure (SMILES): COC(=O)c1cc2c(cc1C)/C(=C(/Nc1ccc(C(=O)NOCCN(C)C)c(C)c1)c1ccccc1)C(=O)N2 [Example 5, (Z)-Methyl 3-(((4-((2-(dimethylamino)ethoxy)carbamoyl)-3-methylphenyl)amino)(phenyl)methylene)-5-methyl-2-oxoindoline-6-carboxylate]
Cell viability at 100 nM (%) (MRC5 cells; 100 nM): 100.6% | Cell viability at 300 nM (%) (MRC5 cells; 300 nM): 92.5% | Cell viability at 1000 nM (%) (MRC5 cells; 1000 nM): 71.5%
